Values after ≈ are worked out from the molar mass of the structure shown.
Tested on: CD4+ T cells
Assay: in vitro T-cell activity assay (CD4+ T cell proliferation by CTV intensity, flow cytometry)
Assay type: cell-based, B6J mice
Conditions: CD3/CD28-activated mouse spleen CD4+ T cells, 72 hours culture; for IC50: Mus musculus, CD4+ T, 72 h, read-out: Immunosuppression IC50
Excerpt: The degree of decrease in immunosuppressive activity of the four novel compounds was investigated by using the conventional in vitro T-cell activity assay (J. Immunol. 143: 718-726, 1989). The division of CD4+ T cells is an indicator that an immune response is taking place, and when CD4+ T cells are stained with Cell Trace™ Violet (CTV) and the cells divide according to the immune response and the T cells proliferate, a phenomenon in which the CTV retention of each cell decreases appears, and thus, the degree of immunosuppressive activity was investigated using this as an indicator.
Single cells were isolated from the spleen of 6 to 8 week-old B6J mice, and CD4+ T cells were isolated using the MagniSort® Mouse CD4 T cell Enrichment Kit (eBioscience). CD4+ T cells were stained with Cell Trace™ Violet (CTV) Cell Proliferation Kit (Molecular Probes), and FK506 or the four novel compounds were added to a concentration of 0.01 ng/mL, 0.1 ng/mL, 1 ng/mL, 10 ng/mL, 100 ng/mL or […], and then, it was cultured for 72 hours. Dynabeads® Mouse T-Activator CD3/CD28 (Gibco) was used for T cell activation. As a control group, non-activated T cells were used. After culture, CTV intensity was analyzed by flow cytometry.

Row | Compound | IC50 | Immunosuppression IC50
1 | CCC[C@@H]1/C=C(\C)C[C@H](C)C[C@H](OC)[C@H]2O[C@@](O)(CC(=O)N3CCC[C@H]3C(=O)O[C@H](/C(C)=C/[C@@H]3CC[C@@H](O)[C@H](O)C3)[C@H](C)[C@@H](O)CC1=O)[C@H](C)C[C@@H]2OC [9-deoxo-31-O-demethyl-36,37-dihydro-prolylFK506] | 5.56 µg/mL (≈ 7.27 µM) | 
2 | CCC[C@@H]1/C=C(\C)C[C@H](C)C[C@H](OC)[C@H]2O[C@@](O)(CC(=O)N3CCC[C@H]3C(=O)O[C@H](/C(C)=C/[C@@H]3CC[C@@H](O)[C@H](OC)C3)[C@H](C)[C@@H](O)CC1=O)[C@H](C)C[C@@H]2OC [9-deoxo-36,37-dihydro-prolylFK506] | 3.09 µg/mL (≈ 3.97 µM) | 
3 | CC[C@@H]1/C=C(\C)C[C@H](C)C[C@H](OC)[C@H]2O[C@@](O)(CC(=O)N3CCC[C@H]3C(=O)O[C@H](/C(C)=C/[C@@H]3CC[C@@H](O)[C@H](O)C3)[C@H](C)[C@@H](O)CC1=O)[C@H](C)C[C@@H]2OC [9-deoxo-prolylFK520] |  | 3.2888 µg/mL
4 | C=CC[C@@H]1/C=C(\C)C[C@H](C)C[C@H](OC)[C@H]2O[C@@](O)(C(=O)C(=O)N3CCCC[C@H]3C(=O)O[C@H](/C(C)=C/[C@@H]3CC[C@@H](O)[C@H](OC)C3)[C@H](C)[C@@H](O)CC1=O)[C@H](C)C[C@@H]2OC [FK506] | 2.7e-05 µg/mL (≈ 3.36e-05 µM) | 
